Read-outs that look alike come from different tables or passages of the source.
Assays:
[1] = system: guinea pig hippocampal synaptosomes; assay: ACh release from guinea pig hippocampal synaptosomes (β-amyloid inhibition of K+-evoked release); format: cell-based; details: attenuation of β-amyloid's inhibition on potassium-evoked ACh release
Procedure: ACh release from guinea pig hippocampal synaptosomes: Synaptosomes (P2 fraction) were prepared from guinea pig hippocampus as described previously and re-suspended in a Krebs-Ringer solution containing 0.1 μM [methyl-^3H]choline chloride (NEN, Boston, Mass.) and incubated at 37° C. for 30 min. Unincorporated choline was removed by washing and the synaptosomes were resuspended in Krebs-Ringer solution to 10 mg/mL. ACh release from synaptosomes was measured using the parallel superfusion chambers (Hugo Sachs Elektronik, March-Hugstetten, Germany) according to that described earlier (Wang, H. -Y. et al Neuropeptides 1999; 33, 197-205). […]
The tissues were treated with peptides and ACh release was evoked by superfusing with 65 mM K^+-Krebs-Ringer (made by equimolar replacement of NaCl with KCl) for 30 seconds. […] The amount of ^3H in the superfusate samples was measured by liquid scintillation spectrometry.
Tritiurn efflux into the superfusate was calculated as the fraction of ^3H content in the synaptosomes at the onset of the respective collection period. […]
Data are expressed as the mean fractional ^3H release±S.E.M. Statistical differences between treatments were tested by Student's t test, two-tailed or the two-factor ANOVA as appropriate. Individual differences in the dose-response curve were evaluated by the Newman-Keuls multiple comparison test.

[2] = system: Biotin-huma7-5; parameters: species or system human; details: read-out: IC50, 125I-α-BTX binding to Biotin-huma7-5
[3] = target: T1, α7nAChR (Homo sapiens, UniProt P36544); assay: α7nAChR binding assay: 125I-β-amyloid1-40 binding to α7SK-N-MC membranes (SPA); details: inhibition of 125I-β-amyloid1-40 (20 pM) binding to α7SK-N-MC membranes
T1 construct: expressed in transfected cells; host or cells: SK-N-MC (ATCC HTB-10), membranes
Procedure: α7nAChR (nicotinic acetylcholine receptor) binding assay: Membranes from recombinant SK-N-MC cells (ATCC#HTB-10) overexpressing α7nAChR (α7SK-N-MC) were prepared according to standard procedures (Wang et al, J. Biol Chem. 275, 5626-5632, 2000) except that the membranes were thoroughly washed. For each assay, membranes (20 μg) were precoupled to wheat germ agglutinin yittrium SPA beads (250 μg, Amersham) in 50 mM HEPES (pH 7.5) containing 0.01% BSA, 2 mM Mg^2+, 2 mM Ca^2+ and protease inhibitors (Boehringer Mannheim, Germany). […] At the end of the incubation (30 min), bound radioactivity was measured in a TopCount (Packard, Meriden, Conn.). Data were analyzed using Graphpad Prism software (Graphpad Software Incorporated).

[4] = target: huma7 peptide / β-amyloid1-40 (Homo sapiens, UniProt P36544); assay: Huma7 binding assay: 125I-β-amyloid1-40 binding to immobilized huma7 peptide
[5] = system: Biotin-huma7-5; assay: Fluo-β-amyloid1-42 binding assay to Biotin-huma7-5; parameters: species or system human
[6] = first phase, read-out: Calculated EC50 for biphasic response, EC50 - 1
[7] = second phase, read-out: Calculated EC50 for biphasic response, EC50 - 2

T1 sequence (P36544 23-502): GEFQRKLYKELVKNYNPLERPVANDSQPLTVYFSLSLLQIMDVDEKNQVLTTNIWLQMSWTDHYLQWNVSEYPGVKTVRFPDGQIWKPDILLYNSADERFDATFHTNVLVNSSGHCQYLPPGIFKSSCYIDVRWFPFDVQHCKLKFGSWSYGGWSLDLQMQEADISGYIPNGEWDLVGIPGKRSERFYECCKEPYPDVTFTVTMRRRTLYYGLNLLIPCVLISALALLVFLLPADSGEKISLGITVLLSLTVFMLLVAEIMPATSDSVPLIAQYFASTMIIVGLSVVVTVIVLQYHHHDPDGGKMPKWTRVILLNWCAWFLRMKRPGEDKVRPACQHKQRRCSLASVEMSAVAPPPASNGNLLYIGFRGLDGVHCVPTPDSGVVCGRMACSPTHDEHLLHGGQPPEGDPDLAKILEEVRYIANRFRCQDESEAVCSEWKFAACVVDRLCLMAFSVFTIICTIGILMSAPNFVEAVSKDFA
Chain of huma7 peptide / β-amyloid1-40 (P36544 193-224): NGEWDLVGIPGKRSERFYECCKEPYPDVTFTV

Row | Compound | IC50 [2] [nM] | EC50 [3, 6] [nM] | EC50 [3, 7] [nM] | other results
1 | 28 (ECCK) [compound 28] |  |  |  | ACh rel % Inh @ 100 μM [1]: 87%
2 | CC(C)C[C@H](NC(=O)[C@H](CCCCN)NC(=O)[C@H](CCC(N)=O)NC(=O)[C@H](Cc1c[nH]cn1)NC(=O)[C@H](Cc1c[nH]cn1)NC(=O)[C@@H](N)C(C)C)C(=O)N[C@H](C(=O)N[C@@H](Cc1ccccc1)C(=O)N[C@@H](Cc1ccccc1)C(=O)N[C@@H](C)C(=O)N[C@@H](CCC(=O)O)C(=O)N[C@@H](CC(=O)O)C(=O)N[C@H](C(=O)NCC(=O)N[C@@H](CO)C(=O)N[C@@H](CC(N)=O)C(=O)N[C@@H](CCCCN)C(=O)O)C(C)C)C(C)C [Aβ12-28] | 400 |  |  | 
3 | CCCN(CCC)C1Cc2c(O)ccc(O)c2CC1C (centres unmarked) [Inhibitor A] |  | 0.133 | 34700 | inhibition of 125I-β-amyloid1-40 binding to immobilized huma7 ([4]; 10 μM inhibitors, FIG. 2): can be inhibited
4 | N[C@@H](Cc1ccc(O)cc1)C(=O)N1CCC[C@H]1C(=O)N[C@@H](Cc1c[nH]c2ccccc12)C(=O)N[C@@H](Cc1ccccc1)C(=O)O [YPWF peptide, YPWF] |  | 0.00351 | 20.3 | 
5 | Aβ42: β-amyloid peptide1-42 |  |  |  | % Inh @ 100 μM, Fluo-β-amyloid1-42 binding to Biotin-huma7-5 ([5]; 100 μM, 100 nM Fluo-β-amyloid1-42, 1 hr at 25° C.): 85%
6 | α-bungarotoxin [α-BTX] | 100 |  |  | % Inh @ 100 μM, Fluo-β-amyloid1-42 binding to Biotin-huma7-5 [5]: 100%; inhibition of 125I-β-amyloid1-40 binding to immobilized huma7 [4]: can be inhibited
